Experimental data taken from patent US6767890B1, “Peptides having anti-cancer and anti-inflammatory activity” (priority 1998, dated 2004).
Values joined by “and” are separate entries in the source; they are usually repeats but may differ in a detail not shown here. Equal entries are not always repeated.

Tests used:
[1] = tested on: galanin receptor; experiment: Galanin Agonism/Antagonism, rat ileum; assay type: cell-based; conditions: Peptide 30 μM
Method: (§1) For in vivo assay, distilled water and saline was used as vehicle in oral and intraperitoneal administration, respectively. Dosing volume was 20 ml/kg for mice or 10 ml/kg for rats.
A segment of ileum obtained from Wistar derived male or female rats weighing 275±25 gms and sacrificed by CO2 overexposure was used. The tissue was placed under 1 g tension in a 10 ml bath containing Kreb's solution pH 7.4 at 32° C. Test substance (30 μM)-induced contraction 50 percent or more (≧50%) within 5 minutes, relative to control 0.1 μM galanin response, indicated possible galanin receptor agonist activity. Atha test substance concentration where no significant agonist activity was seen, ability to reduce the galanin-induced contractile response […] or more (≧50%) indicated galanin receptor antagonist activity. Each concentration was tested on two separate preparations.

[2] = tested on: DNBS-induced distal colitis; experiment: Inflammation, Inflammatory Bowel Disease (DNBS distal colitis); assay type: in vivo, rat; conditions: PO, Peptide 30 mg/kg × 7, Sulfasalazine 300 mg/kg × 7
Method: as §1
Groups of 3 Sprague-Dawley derived male rats weighing 150±20 gms and fasted for 24 hours were used. Distal colitis was induced by intra-colonic instillation of DNBS (2,4-dinitrobenzene sulfonic acid, 30 mg in 0.5 ml ethanol 30%) after which air (2 ml) was gently injected through the cannula to ensure that the solution remains in the colon. Test substance was administered PO (30 mg/kg) at 24 and 2 hours before DNBS instillation. Then, the animals received test compound every 24 hours for 5 consecutive days. The control group was given vehicle alone as compound dosing pattern. The animals were sacrificed 24 hours after the final dose of test compound administration and each colon was removed and weighed. Colon-to-body weight ratio was obtained from the percentage of the comparison between the animal colon weight and body weight on the 8th day. A 30 percent or more (±30%) reduction in colon-to-body weight ratio relative to the vehicle treated control group was considered significant.

[3] = target: T1, Cyclooxygenase-1 (Ovis aries, UniProt P05979); experiment: Cyclooxygenase-1 enzyme assay; assay type: biochemical, ram; conditions: 300.0 μM; average of duplicate; negative = stimulation
T1 construct: ram seminal; from tissue; host or cells: ram seminal vesicle
T1 sequence (P05979 25-600): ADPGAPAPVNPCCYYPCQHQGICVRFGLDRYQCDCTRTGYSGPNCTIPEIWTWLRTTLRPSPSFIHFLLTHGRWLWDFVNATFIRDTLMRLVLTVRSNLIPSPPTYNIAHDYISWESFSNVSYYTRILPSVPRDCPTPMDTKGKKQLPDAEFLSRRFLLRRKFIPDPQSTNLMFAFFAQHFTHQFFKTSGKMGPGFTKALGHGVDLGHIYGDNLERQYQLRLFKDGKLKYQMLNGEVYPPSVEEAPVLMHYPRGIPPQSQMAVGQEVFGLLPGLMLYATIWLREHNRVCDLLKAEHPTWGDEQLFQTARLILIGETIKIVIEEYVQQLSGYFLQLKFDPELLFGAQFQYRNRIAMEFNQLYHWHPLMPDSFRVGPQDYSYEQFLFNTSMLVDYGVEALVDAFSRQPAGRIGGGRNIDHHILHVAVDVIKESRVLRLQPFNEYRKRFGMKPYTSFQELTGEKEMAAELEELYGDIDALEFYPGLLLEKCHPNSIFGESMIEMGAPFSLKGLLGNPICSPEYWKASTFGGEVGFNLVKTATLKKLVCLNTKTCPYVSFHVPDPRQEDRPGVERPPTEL
Method: (§2) The peptide was further screened in vitro in a variety of enzyme and biochemical assays. Methods employed were adapted from the scientific literature to maximize reliability and reproducibility.
(§3) Unless otherwise indicated, the peptide was tested in duplicate at the concentrations indicated for each assay. Results presented in Table 10, “Results,” are the average of duplicate determinations, unless otherwise noted.
(§4) Enzyme assays were performed under conditions described in Table 8, “Experimental Conditions.”. The commercial suppliers and catalog numbers of substrates employed in this study are given in Table 7, “Material Sources.” The name, commercial source, and catalog numbers of concurrent reference compounds (controls) employed in this study are given in Table 9, “Reference Compound Data.” The reaction catalyzed by each enzyme is listed in Table 8, “Experimental Conditions.”
(§5) Biochemical assay results are presented in Table 10, as the percent inhibition of specific binding or activity, and unless noted are the average of duplicate tubes tested at each concentration.

[4] = target: T2, Cyclooxygenase-2 (Ovis aries, UniProt P79208); experiment: Cyclooxygenase-2 enzyme assay; assay type: biochemical, sheep; conditions: 300.0 μM; average of duplicate; negative = stimulation
T2 construct: sheep placenta; from tissue; host or cells: sheep placenta
T2 sequence (P79208 17-603): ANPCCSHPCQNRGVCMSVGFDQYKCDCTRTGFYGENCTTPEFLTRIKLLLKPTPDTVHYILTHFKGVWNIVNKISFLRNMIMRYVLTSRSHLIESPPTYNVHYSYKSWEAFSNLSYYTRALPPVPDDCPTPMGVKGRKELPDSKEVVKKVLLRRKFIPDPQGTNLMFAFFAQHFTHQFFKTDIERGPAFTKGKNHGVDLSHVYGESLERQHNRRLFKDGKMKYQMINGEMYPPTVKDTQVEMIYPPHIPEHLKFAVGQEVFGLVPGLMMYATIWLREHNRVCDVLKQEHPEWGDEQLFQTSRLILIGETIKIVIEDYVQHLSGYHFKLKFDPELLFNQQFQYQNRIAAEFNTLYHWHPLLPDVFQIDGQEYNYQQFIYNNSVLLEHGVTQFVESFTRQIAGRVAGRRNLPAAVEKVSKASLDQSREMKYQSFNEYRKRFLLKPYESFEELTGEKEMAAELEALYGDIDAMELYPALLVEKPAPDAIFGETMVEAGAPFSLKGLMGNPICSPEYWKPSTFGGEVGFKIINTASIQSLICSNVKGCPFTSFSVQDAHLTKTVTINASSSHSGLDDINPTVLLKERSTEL
Method: as §2, §3, §4, §5

[5] = target: T3, Protease - Elastase (Homo sapiens, UniProt P08246); experiment: Protease - Elastase enzyme assay; assay type: biochemical; conditions: 30.0 μM; average of duplicate; negative = stimulation
T3 construct: neutrophils; endogenous in cells; host or cells: human neutrophils
T3 sequence (P08246 30-267): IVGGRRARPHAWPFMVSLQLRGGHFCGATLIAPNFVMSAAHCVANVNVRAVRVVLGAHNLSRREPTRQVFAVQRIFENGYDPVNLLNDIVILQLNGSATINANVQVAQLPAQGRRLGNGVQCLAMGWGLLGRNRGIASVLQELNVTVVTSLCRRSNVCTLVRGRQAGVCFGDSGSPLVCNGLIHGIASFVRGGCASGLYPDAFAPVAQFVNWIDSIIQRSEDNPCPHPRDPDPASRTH
Method: as §2, with “reproducibility. The primary literature reference for each assay is listed in Table 11 opposite the results for each assay.” for “reproducibility.”
(§6) Results presented in Table 10, “Results,” are the average of duplicate determinations, unless otherwise noted.
(§7) Reference compounds were tested concurrently at 5 concentrations as an integral part of each assay to ensure the validity of the results obtained.
as §4, §5

[6] = target: Ca++ Ch.-L, Benzothiazepine (Rattus norvegicus, UniProt P22002); experiment: Ca++ Ch.-L, Benzothiazepine radioligand binding; conditions: 10.0 μM; specific binding of [3H]Diltiazem; negative = stimulation
Ca++ Ch.-L, Benzothiazepine, sequence (P22002 whole entry): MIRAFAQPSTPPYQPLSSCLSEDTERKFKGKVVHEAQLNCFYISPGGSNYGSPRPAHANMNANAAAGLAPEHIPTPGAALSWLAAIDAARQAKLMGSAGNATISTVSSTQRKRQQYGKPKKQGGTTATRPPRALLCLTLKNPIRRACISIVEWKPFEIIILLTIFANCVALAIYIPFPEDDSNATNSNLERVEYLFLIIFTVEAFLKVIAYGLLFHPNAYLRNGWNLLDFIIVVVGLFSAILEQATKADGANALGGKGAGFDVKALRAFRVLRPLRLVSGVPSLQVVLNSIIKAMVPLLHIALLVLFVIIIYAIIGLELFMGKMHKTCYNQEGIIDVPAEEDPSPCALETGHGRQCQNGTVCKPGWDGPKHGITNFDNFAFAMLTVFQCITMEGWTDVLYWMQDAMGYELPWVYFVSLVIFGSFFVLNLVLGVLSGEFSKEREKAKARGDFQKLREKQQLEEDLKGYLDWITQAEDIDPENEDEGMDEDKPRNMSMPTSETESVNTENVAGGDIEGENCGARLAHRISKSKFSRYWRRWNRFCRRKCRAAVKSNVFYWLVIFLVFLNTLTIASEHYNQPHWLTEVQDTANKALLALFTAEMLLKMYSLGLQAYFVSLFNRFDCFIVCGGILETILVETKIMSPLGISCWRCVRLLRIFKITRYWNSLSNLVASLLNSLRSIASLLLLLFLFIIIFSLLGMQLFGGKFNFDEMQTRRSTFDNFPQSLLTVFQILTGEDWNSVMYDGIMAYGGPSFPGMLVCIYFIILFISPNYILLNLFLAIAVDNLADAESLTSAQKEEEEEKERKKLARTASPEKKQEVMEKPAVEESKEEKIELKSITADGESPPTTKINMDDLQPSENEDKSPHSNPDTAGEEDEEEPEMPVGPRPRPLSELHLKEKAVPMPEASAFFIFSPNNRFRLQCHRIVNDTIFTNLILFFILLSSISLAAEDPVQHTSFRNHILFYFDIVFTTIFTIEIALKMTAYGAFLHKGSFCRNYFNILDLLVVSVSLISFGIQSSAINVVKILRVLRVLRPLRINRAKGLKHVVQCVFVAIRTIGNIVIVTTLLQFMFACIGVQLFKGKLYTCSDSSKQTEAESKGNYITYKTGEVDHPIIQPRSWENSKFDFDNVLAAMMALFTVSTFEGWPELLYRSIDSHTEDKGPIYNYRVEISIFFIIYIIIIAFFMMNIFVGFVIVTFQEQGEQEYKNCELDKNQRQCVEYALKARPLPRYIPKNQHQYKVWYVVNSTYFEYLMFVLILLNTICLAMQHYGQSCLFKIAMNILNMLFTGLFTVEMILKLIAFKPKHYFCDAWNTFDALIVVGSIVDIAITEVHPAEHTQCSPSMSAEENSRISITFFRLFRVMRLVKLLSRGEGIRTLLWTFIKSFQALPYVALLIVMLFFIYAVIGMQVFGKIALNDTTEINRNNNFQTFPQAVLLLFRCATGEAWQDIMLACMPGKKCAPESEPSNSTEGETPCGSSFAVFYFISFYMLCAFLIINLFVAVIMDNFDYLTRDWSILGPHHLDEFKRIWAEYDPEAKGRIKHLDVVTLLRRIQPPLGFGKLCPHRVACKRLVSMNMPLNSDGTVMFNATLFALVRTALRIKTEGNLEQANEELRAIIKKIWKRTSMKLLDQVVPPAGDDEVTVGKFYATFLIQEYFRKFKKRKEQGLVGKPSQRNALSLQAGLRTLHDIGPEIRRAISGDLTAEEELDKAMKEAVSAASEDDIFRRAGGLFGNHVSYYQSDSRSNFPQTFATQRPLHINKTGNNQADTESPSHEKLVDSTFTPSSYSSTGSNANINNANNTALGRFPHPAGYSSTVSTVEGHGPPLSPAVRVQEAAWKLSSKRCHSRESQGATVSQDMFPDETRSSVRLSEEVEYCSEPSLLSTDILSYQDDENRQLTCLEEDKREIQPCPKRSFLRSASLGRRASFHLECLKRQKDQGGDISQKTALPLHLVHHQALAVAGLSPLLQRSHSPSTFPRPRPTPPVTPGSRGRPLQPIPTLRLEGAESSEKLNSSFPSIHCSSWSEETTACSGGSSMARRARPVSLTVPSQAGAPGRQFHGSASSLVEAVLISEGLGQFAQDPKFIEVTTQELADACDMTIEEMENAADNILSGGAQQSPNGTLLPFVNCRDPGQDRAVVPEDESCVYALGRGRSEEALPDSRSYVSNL
Method: as §2, §6
(§8) Radioligand binding assays were performed under conditions described in Table 8, “Experimental Conditions.” Radioligands employed in this study are given in Table 8, and commercial sources and catalog numbers of the radioligands are provided in Table 7, “Material Sources.” Unlabeled, blocking ligands employed this study are listed in Table 8, “Experimenal Conditions,” along with the commercial sources and catalog number of the unlabeled ligand. The concurrent reference compound (control) employed in each assay is listed in Table 9, “Reference Compound Data,” along with the commercial supplier and catalog number of the compound. Where receptors have been obtained through recombinant expression techniques, the species from which the cDNA was obtained, and the type of expression system employed (mammalian, insect, bacterial) is also given Table 7.
(§9) Maximum total binding and nonspecific binding were determined each time each assay was run. Nonspecific binding was defined as the proportion of total binding not displaced by unlabeled ligand specific for the receptor. […]

[7] = target: Ca++ Ch.-L, Dihydropyridine (Rattus norvegicus, UniProt P22002); experiment: Ca++ Ch.-L, Dihydropyridine radioligand binding; conditions: 10.0 μM; specific binding of [3H]Nitrendipine; negative = stimulation
Ca++ Ch.-L, Dihydropyridine, sequence (P22002 whole entry): as above
Method: as §2, §6, §8, §9

[8] = target: T4, Histamine H3 (Rattus norvegicus, UniProt Q9QYN8); experiment: Histamine H3 radioligand binding; conditions: 10.0 μM; specific binding of [3H]NAMH; negative = stimulation
T4 construct: rat brain; from tissue; host or cells: rat brain
T4 sequence (Q9QYN8 whole entry): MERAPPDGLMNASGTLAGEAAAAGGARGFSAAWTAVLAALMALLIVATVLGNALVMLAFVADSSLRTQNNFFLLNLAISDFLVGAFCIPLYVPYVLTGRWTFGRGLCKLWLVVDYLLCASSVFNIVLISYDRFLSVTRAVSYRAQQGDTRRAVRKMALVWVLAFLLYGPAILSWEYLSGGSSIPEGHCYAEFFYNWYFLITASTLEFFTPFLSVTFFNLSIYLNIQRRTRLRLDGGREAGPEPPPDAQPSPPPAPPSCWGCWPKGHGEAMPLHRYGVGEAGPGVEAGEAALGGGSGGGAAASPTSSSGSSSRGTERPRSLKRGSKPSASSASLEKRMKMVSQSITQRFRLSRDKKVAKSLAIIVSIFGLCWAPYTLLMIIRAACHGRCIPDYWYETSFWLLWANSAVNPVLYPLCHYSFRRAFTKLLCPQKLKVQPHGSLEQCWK
Method: as §2, with “reproducibility. The primary literature reference for each assay is listed in Table 11 opposite the results for each assay.” for “reproducibility.”
as §6, §7
Radioligand binding assays were performed under conditions described in Table 8, “Experimental Conditions.” Radioligands employed in this study are given in Table 8, and commercial sources and catalog numbers of the radioligands are provided in Table 7, “Material Sources.” Unlabeled, blocking ligands employed this study are listed in Table 8, “Experimenal Conditions,” along with the commercial sources and catalog number of the unlabeled ligand. The concurrent reference compound (control) employed in each assay is listed in Table 9, “Reference Compound Data,” along with the commercial supplier and catalog number of the compound. […]
(§10) Maximum total binding and nonspecific binding were determined each time each assay was run. […]
(§11) Where inhibition constants (Ki) are presented, the Ki values were calculated using the equation of Cheng and Prusoff (Cheng, Y., Prusoff, W. H., Biochem. Pharmacol. […], 1973) using the observed IC50 of the tested compound, the concentration of radioligand employed in the assay, and the historical values for the Kd of the ligand (obtained experimentally). Where presented, the Hill Coefficient (nH), defining the scope of the competitive binding curve, was calculated using GraphPad Prism. […] Where IC50, Ki, and/or Hill Slope data is presented without Standard Error of the Mean (SEM), data are insufficient to be quantitative, and the values presented (Ki, IC50, nH) should be interpreted with caution. […]

[9] = target: T5, Interleukin-6 (Homo sapiens, UniProt P08887); experiment: Interleukin-6 radioligand binding; conditions: 10.0 μM; specific binding of [125I]Interleukin-6; negative = stimulation
T5 construct: human U266; endogenous in cells; host or cells: U266 cells
T5 sequence (P08887 20-468): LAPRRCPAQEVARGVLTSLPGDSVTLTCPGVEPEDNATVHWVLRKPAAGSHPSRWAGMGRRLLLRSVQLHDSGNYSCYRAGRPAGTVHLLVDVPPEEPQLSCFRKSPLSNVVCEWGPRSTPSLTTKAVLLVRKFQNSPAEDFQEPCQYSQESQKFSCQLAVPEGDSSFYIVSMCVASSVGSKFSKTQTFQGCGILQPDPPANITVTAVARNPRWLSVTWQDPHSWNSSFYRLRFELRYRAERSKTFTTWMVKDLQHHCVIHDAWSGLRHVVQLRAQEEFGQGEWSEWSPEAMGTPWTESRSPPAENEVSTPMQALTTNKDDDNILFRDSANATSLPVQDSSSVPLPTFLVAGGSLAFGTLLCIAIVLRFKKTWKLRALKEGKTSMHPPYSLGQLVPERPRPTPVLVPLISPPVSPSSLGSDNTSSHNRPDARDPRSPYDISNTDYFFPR
Method: as §2, with “reproducibility. The primary literature reference for each assay is listed in Table 11 opposite the results for each assay.” for “reproducibility.”
as §6
Reference compounds were tested concurrently at 5 concentrations as an integral part of each assay to ensure the validity of the results obtained. […]
as §10, §11

[10] = target: T6, Leukotriene B4 (Homo sapiens, UniProt Q15722); experiment: Leukotriene B4 radioligand binding; conditions: 10.0 μM; specific binding of [3H]LTB4; negative = stimulation
T6 construct: human U937; endogenous in cells; host or cells: U937 cells
T6 sequence (Q15722 whole entry): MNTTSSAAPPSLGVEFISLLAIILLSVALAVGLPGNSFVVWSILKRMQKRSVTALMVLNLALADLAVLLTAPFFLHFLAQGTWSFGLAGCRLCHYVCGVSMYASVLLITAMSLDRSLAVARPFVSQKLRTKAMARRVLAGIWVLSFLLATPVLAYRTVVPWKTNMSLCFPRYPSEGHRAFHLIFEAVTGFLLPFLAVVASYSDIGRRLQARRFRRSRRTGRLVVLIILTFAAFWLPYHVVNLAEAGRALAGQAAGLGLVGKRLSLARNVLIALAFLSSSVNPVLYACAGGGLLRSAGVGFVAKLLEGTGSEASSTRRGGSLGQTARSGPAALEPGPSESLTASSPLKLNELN
Method: as §2, §6, §8, §9

## LEU-PRO-PRO-SER-ARG [Peptide]
[1]; average of two preparations
  Antagonism, Ave.: 12%
[1]; average of two preparations, Galanin 0.1 μM
  Agonism, Ave.: 0%
[1]; individual preparation, contraction within 5 minutes relative to 0.1 μM galanin response, Galanin 0.1 μM
  Agonism: 0%
[1]; individual preparation, reduction of 0.1 μM galanin-induced contractile response
  Antagonism: 24% and 0%
[2]; group mean minus blank-control
  Ratio Net: 0.276%
[2]; group mean
  Ratio Ind., X (group mean): 0.646%
[2]; individual rat, Colon (g)/8th B.W. × 100%
  Ratio Ind. (colon-to-body weight ratio): 0.683% and 0.608%
[2]; reduction in colon-to-body weight ratio relative to vehicle control
  % INH.: 22%
[3]
  % Inhibition: 2%
[4]
  % Inhibition: 2%
[5]
  % Inhibition: −11%
[6]
  % Inhibition: 18%
[7]
  % Inhibition: 2%
[8]
  % Inhibition: −13%
[9]
  % Inhibition: 13%
[10]
  % Inhibition: 8%
